From paper PMC6609034, “Unraveling the role of the secretor antigen in human rotavirus attachment to histo-blood group antigens” (PLoS Pathogens, 2019)

Assays:
VP8* P[8] = assay: ELISA-like binding assay to biotinylated HBGAs; design: species or system human rotavirus; details: biotinylated PAA glycan 2 μg/ml, VP8* 10 μg/ml
Excerpt: A panel of biotinylated sugar antigens including Le^a, Le^b, Le^c (lacto-N-biose; LNB), H type-1, H type-2 and blood group A and B trisaccharides were purchased from Glyconz (Fig 1 and S1 Table). These glycans are biotinylated neoglyconjugates of a poly[N-(2-hydroxyethyl)acrylamide] (PAA) with a size from 30 to 50 KDa. This forms a flexible polymer ideal for a multivalent presentation of glycans. Immobilized streptavidin F96 black plates (Nunc) were coated with the biotinylated oligosaccharides (2 μg/ml) in milli-Q water and incubated during 1 hour at 37°C. After functionalization the plates were washed once with PBS containing 0.05% of Tween 20 (PBS-T) and the VP8* proteins were added (10 μg/ml) and incubated at 4°C overnight. After three washes with PBS-T, a rabbit polyclonal antibody anti GST (1:1,000) (Abcam) was added and the plates were incubated one hour at 37°C. Then, the plates were washed three times with PBS-T and incubated for 1 h at 37°C with 1:10,000 dilution of horseradish peroxidase (HRP)-conjugated goat anti-rabbit (Abcam). After three washes with PBS-T, the binding was detected using QuantaBlue reagent (ThermoFisher) kit, as recommended by the manufacturer. Fluorescence units were registered by a MultiScan microplate reader. All the binding assays were performed in triplicate.

[1] = tested on: P[8]c VP8* mutant R209A (M2); assay: SPR binding of VP8* mutant; design: species or system human rotavirus
Excerpt: Selected residues in the GST::VP8* P[8] were replaced for alanine or valine according to the structural data of the LNB binding site. Four mutants (M1–M4) were constructed using a Quick-Change site-directed mutagenesis kit (Stratagene) and appropriate oligonucleotides (S5 Table), and the DNA changes were confirmed by DNA sequencing. Mutant M1, M2 and M3 contained changes in the codons for tryptophan 174, arginine 209 and glutamic 212 residues, respectively, that introduced an alanine at each position. Mutant M4 substituted isoleucine 173 by valine.
The affinity assays were based on SPR and performed in a Biacore T100 instrument (GE Healthcare). H1 PAA-biotin and LNB PAA-biotin were diluted to a concentration of 1 mg/ml in water and captured with streptavidin present in a SA sensor chip (GE Healthcare). H1 was immobilized in channel 2 (630 RU) of the sensor chip and LNB was immobilized in channel 4 (624 RU). The channels 1 and 3 were used as the reference surfaces for channels 2 and 4, respectively. The immobilization process was performed by conditioning the sensor chip surface with three consecutive 1-minute injections of 1 M NaCl 50 mM NaOH before biotinylated ligands were immobilized at a flow rate of 15 μl/min. The affinity assays of VP8* polypeptides to biotinylated sugars were performed at 10°C using 1X HBS-EP^+ buffer (0.01 M HEPES pH 7.4, 0.15 M NaCl, 3 mM EDTA, 0.005% Surfactant P20), a flow rate of 5 μl/min with 2700 seconds of contact time and a dissociation time of 1800 seconds. The regeneration step consisted in a wash step with 10 mM Glycine-HCl pH 2 for 20 seconds at the same flow rate. The assays were performed with purified VP8* at different concentrations (45; 137; 411; 1,234; 3,703; 11,111; 33,333; 100,000 and 200,000 nM). Each run included three blanks without sample. The affinity data were obtained after analysis of sensorgrams performed with the BIAevaluation 2.0 software (GE Healthcare). Since multivalent oligosaccharides are immobilized on a sensor chip surface, avidity and rebinding effects can take place and apparent affinity constants (Kda) are calculated with this experimental setup. Kda values were obtained from the steady-state kinetics experiment as the ligand concentration needed to achieve a half-maximum binding at equilibrium. The experiments were made in triplicate. Graphical representation of signal/concentration curves were plotted using GraphPad Prism 6 for MacOsX.

[2] = tested on: VP8* P[8]c binding to LNB; assay: Binding blocking assay, immobilized LNB; design: species or system human rotavirus; details: soluble sugar at 20 mM
Experimental: (§1) To confirm the binding of the VP8* from the P[8] genotype to the H type-1 precursor LNB, a blocking assay was performed using soluble LNB and its related disaccharide galacto-N-biose (Gal-β-1,3-GalNAc; GNB) produced and purified in our laboratory as previously described.
(§2) Streptavidin microtiter plates were coated with biotinylated H type-1 antigen or LNB at 2 μg/ml with water and incubated for 1 hour at 37°C, followed by an overnight incubation at 4°C. Blocking assays were performed in parallel, using glass tubes containing the P[8]c and P[8]Wa VP8* protein at their EC50 for each ligand and 20 mM of each of the soluble disaccharides (LNB and GNB) and monosaccharides (D-galactose, GlcNAc and GalNAc). A positive binding control without sugar was also included. The tubes containing the mixes of VP8* with sugars were maintained 1 hour at 37°C, followed by an overnight incubation at 4°C. The next day the coated streptavidin plates were washed with PBS-T, the VP8*-sugar solutions were added to the plates and incubated during 4 hours at 4°C. The plates were washed three times with PBS-T and detection of the interactions was performed as described above. The results are presented as the percentage (%) of binding of each condition compared to the binding of the positive binding control (without blocking sugar). All experiments were performed in triplicate.

[3] = tested on: rotavirus Wa strain (G1P[8]) in MA104 cells; assay: Blocking of rotavirus infection in MA104 cells (fluorescent focus assay); type: cell-based, human rotavirus; details: sugar at 5 mg/mL
Experimental: The G1P[8] Wa strain was tested on MA104 cells. The sugars LNB, GNB, GlcNAc, GalNAc, D-galactose and L-fucose were tested for their effect on rotavirus infectivity. The oligosaccharides were previously heat sterilized at 99°C for 10 min and then dissolved in serum-free DMEM containing 1 μg/ml trypsin. Serum-free DMEM containing […] oligosaccharide was used as a control in each experiment.
The effect of different mono- and disaccharides on rotavirus infectivity was assessed through standard fluorescent focus assays on MA104 cells. The dilution of Wa virus stocks that yielded ~150 focus-forming units/well was first established. Then, sugars were added during virus inoculation at a final concentration of 5 mg/ml, incubated for 1 hour, and unbound virus was removed by washing with FBS-DMEM. The cells were allowed to be infected for 16h, washed once with PBS and fixed with 100% methanol. A mouse anti-VP6 primary antibody (1:50 dilution in PBS containing 3% BSA) was added and incubation proceeded for 30 min at room temperature with gentle rotation. […] Individual fluorescence foci were counted on an inverted fluorescence microscope with a FITC-compatible filter. […] Virus titer measured in the absence of oligosaccharides was considered to be 100% infectivity, and changes in virus titer in the presence of sugars were expressed as percentage of infectivity compared with no sugar treatment.

[4] = tested on: VP8* P[8]c binding to the H1 antigen; assay: Binding blocking assay, immobilized H1 antigen; design: species or system human rotavirus; details: soluble sugar at 20 mM
Experimental: as §1, §2

SMILES	binding (ELISA-like) (VP8* P[8])	binding by SPR [1]	reduction of the binding of VP8* P[8]c to LNB [2] [%]	reduction of viral infection [3] [%]	reduction in the binding to the H1 antigen [4] [%]
CC(=O)NC1C(O)OC(CO)C(O)C1OC1OC(CO)C(O)C(O)C1OC1OC(C)C(O)C(O)C1O (stereo not drawn) [H1, Fuc-α1,2-Gal-β1,3-GlcNAc]	recognized	lost their ability to interact			
CC(=O)NC1C(O)OC(CO)C(O)C1OC1OC(CO)C(O)C(O)C1O (stereo not drawn) [LNB, Gal-β1,3-GlcNAc]	recognize	lost their ability to interact	52.2	33	24.2
